In US12599136B2, “Substituted isophthalic acid diamides and their use as herbicides” (Bayer Aktiengesellschaft, priority 2020, dated 2026):

Key:
Type in all cases: in vivo
[1] = tested on: Viola tricolor; test: Post-emergence herbicidal action against VIOTR
Outline: (§1)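 Greenhouse pot plants in sandy loam were sprayed at the one-leaf stage, 2 to 3 weeks after sowing, with WP or EC formulations as aqueous suspension or emulsion (600 to 800 l/ha water, 0.2% wetting agent). About 3 weeks later, damage was scored visually against untreated controls as % action (100% = dead, 0% = like control).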

[2] = tested on: Avena fatua; test: Pre-emergence herbicidal action against AVEFA; settings: 80 g/ha; visual score after 3 weeks vs untreated controls
Outline: (§2)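 Visual rating at 3 weeks vs untreated pots; 0–100% scale, 100% = plants died. Treatment: aqueous WP/EC spray onto covering soil, 600–800 l/ha, 0.2% wetter, seeds in sandy loam.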

[3] = tested on: Echinochloa crus-galli; test: Pre-emergence herbicidal action against ECHCG; settings: 80 g/ha; visual score after 3 weeks vs untreated controls
Outline: as §2

[4] = tested on: Alopecurus myosuroides; test: Post-emergence herbicidal action against ALOMY; settings: 20 g/ha
Outline: as §1

[5] = tested on: Setaria viridis; test: Post-emergence herbicidal action against SETVI; settings: 20 g/ha, visual assessment about 3 weeks after treatment
Outline: as §1

[6] = tested on: Avena fatua; test: Post-emergence herbicidal action against AVEFA; settings: 20 g/ha, visual assessment about 3 weeks after treatment
Outline: as §1

[7] = tested on: Amaranthus retroflexus; test: Pre-emergence herbicidal action against AMARE; settings: visual score after 3 weeks vs untreated controls
Outline: as §2

[8] = tested on: Abutilon theophrasti; test: Pre-emergence herbicidal action against ABUTH; settings: visual score after 3 weeks vs untreated controls
Outline: as §2

[9] = tested on: Veronica persica; test: Pre-emergence herbicidal action against VERPE; settings: 80 g/ha
Outline: as §2

[10] = tested on: Amaranthus retroflexus; test: Post-emergence herbicidal action against AMARE; settings: 20 g/ha, visual assessment about 3 weeks after treatment
Outline: as §1

[11] = tested on: Setaria viridis; test: Pre-emergence herbicidal action against SETVI; settings: 80 g/ha
Outline: as §2

[12] = tested on: Digitaria sanguinalis; test: Pre-emergence herbicidal action against DIGSA
Outline: as §2

[13] = tested on: Digitaria sanguinalis; test: Post-emergence herbicidal action against DIGSA
Outline: as §1

[14] = tested on: Veronica persica; test: Post-emergence herbicidal action against VERPE; settings: 20 g/ha, visual assessment about 3 weeks after treatment
Outline: as §1

[15] = tested on: Viola tricolor; test: Pre-emergence herbicidal action against VIOTR
Outline: as §2

[16] = tested on: Polygonum convolvulus; test: Post-emergence herbicidal action against POLCO; settings: 20 g/ha, visual assessment about 3 weeks after treatment
Description: Seeds of monocotyledonous and dicotyledonous weed and crop plants are laid out in sandy loam soil in wood-fiber pots, covered with soil and cultivated in a greenhouse under good growth conditions. 2 to 3 weeks after sowing, the test plants are treated at the one-leaf stage. The compounds of the invention, formulated in the form of wettable powders (WP) or as emulsion concentrates (EC), are then sprayed onto the green parts of the plants in the form of an aqueous suspension or emulsion at a water application rate equivalent to 600 to 800 l/ha, with addition of 0.2% wetting agent. After the test plants have been left to stand in the greenhouse under optimal growth conditions for about 3 weeks, the action of the preparations is assessed visually in comparison to untreated controls (herbicidal action in percent (%): 100% activity=the plants have died, 0% activity=like control plants). […] The tables below illustrate, in an illustrative manner, the post-emergence herbicidal action of the compounds of the invention, the herbicidal activity being stated in percent.

[17] = tested on: Matricaria inodora; test: Pre-emergence herbicidal action against MATIN; settings: visual score after 3 weeks vs untreated controls
Outline: as §2

[18] = tested on: Alopecurus myosuroides; test: Pre-emergence herbicidal action against ALOMY; settings: 80 g/ha; visual score after 3 weeks vs untreated controls
Outline: as §2

[19] = tested on: Echinochloa crus-galli; test: Post-emergence herbicidal action against ECHCG; settings: 20 g/ha, visual assessment about 3 weeks after treatment
Outline: as §1

[20] = tested on: Abutilon theophrasti; test: Post-emergence herbicidal action against ABUTH; settings: 20 g/ha
Outline: as §1

[21] = tested on: Matricaria inodora; test: Post-emergence herbicidal action against MATIN; settings: visual assessment about 3 weeks after treatment
Outline: as §1

Cc1c(C(=O)Nc2nnnn2C)ccc(C(F)(F)F)c1C(=O)N(C)CC(F)F [Example 1-24]
Post-emergence action against VIOTR in % ([1]; 5 g/ha): 80%
Post-emergence action against VIOTR in % ([1]; 20 g/ha): 90%
Pre-emergence action against AVEFA [2]: 90%
Pre-emergence action against ECHCG [3]: 100%
Post-emergence action against ALOMY [4]: 90%
Post-emergence action against SETVI in % [5]: 80%
Post-emergence action against AVEFA in % [6]: 80%
Pre-emergence action against AMARE ([7]; 20 g/ha): 100%
Pre-emergence action against AMARE ([7]; 80 g/ha): 100%
Pre-emergence action against ABUTH ([8]; 20 g/ha): 100%
Pre-emergence action against ABUTH ([8]; 80 g/ha): 100%
Pre-emergence action against VERPE [9]: 100%
Post-emergence action against AMARE in % [10]: 90%
Pre-emergence action against SETVI [11]: 100%
Pre-emergence action against DIGSA ([12]; 20 g/ha): 100%
Pre-emergence action against DIGSA ([12]; 80 g/ha): 100%
Post-emergence action against DIGSA in % ([13]; 5 g/ha): 100%
Post-emergence action against DIGSA in % ([13]; 20 g/ha): 100%
Post-emergence action against VERPE in % [14]: 80%
Pre-emergence action against VIOTR ([15]; 20 g/ha): 80%
Pre-emergence action against VIOTR ([15]; 80 g/ha): 100%
Post-emergence action against POLCO in % [16]: 100%
Pre-emergence action against MATIN ([17]; 20 g/ha): 90%
Pre-emergence action against MATIN ([17]; 80 g/ha): 100%
Pre-emergence action against ALOMY [18]: 90%
Post-emergence action against ECHCG in % [19]: 80%
Post-emergence action against ABUTH [20]: 80%
Post-emergence action against MATIN in % ([21]; 5 g/ha): 90%
Post-emergence action against MATIN in % ([21]; 20 g/ha): 90%
